Source: PMC4753485, “Selective potentiation of 2-APB-induced activation of TRPV1–3 channels by acid” (Scientific Reports, 2016)
Values joined by “and” are separate entries in the source; they are usually repeats but may differ in a detail not shown here. Equal entries are not always repeated. Where two headings read alike, the source gives them in different places.

How the values were obtained:
[1] = biological target: TRPV2 (Rattus norvegicus, UniProt Q9WUD2); test: cell-based; settings: for EC50: EC50 of 2-APB-evoked TRPV2 whole-cell current
TRPV2, sequence (Q9WUD2 whole entry): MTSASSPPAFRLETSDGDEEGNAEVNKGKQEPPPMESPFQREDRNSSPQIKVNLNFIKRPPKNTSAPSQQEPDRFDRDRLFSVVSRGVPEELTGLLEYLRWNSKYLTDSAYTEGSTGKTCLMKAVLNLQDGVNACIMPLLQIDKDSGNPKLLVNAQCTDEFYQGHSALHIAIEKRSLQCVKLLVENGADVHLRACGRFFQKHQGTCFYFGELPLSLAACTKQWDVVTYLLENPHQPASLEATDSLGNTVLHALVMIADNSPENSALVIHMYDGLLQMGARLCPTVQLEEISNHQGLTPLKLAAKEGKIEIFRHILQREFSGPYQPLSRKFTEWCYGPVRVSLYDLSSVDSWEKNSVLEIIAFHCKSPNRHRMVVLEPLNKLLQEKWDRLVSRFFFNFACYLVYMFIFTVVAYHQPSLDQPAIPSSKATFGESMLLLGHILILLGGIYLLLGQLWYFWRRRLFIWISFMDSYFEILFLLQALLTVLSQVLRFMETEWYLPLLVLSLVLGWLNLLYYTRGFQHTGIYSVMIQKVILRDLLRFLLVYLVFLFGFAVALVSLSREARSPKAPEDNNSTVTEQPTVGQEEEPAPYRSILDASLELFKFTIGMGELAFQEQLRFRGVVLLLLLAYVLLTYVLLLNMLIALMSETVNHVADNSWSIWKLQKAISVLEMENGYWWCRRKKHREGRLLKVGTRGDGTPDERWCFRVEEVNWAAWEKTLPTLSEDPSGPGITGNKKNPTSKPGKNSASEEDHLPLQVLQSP
Description: (§1) Full-length cDNA for murine TRPV3 was isolated and subcloned into pIRES2-EGFP, as previously described. The wild-type rat TRPV1, TRPV2 and TRPM8 cDNAs were generously provided by Dr. Feng Qin (State University of New York at Buffalo, Buffalo). All mutations were made using either QuikChange® XL site-directed mutagenesis kit (Agilent Technologies) or the overlap-extension polymerase chain reaction (PCR) method as previously described. The resulting mutations were verified by DNA sequencing. HEK293 cells were grown in DMEM containing 4.5 mg/ml glucose, 10% heat-inactivated fetal bovine serum, 50 units/ml penicillin, and 50 μg/ml streptomycin. For electrophysiological experiments, cells were seeded in 35 mm culture dishes and transfected with the desired DNA constructs using Lipofectamine 2000 (Invitrogen) following the protocol provided by the manufacturer. Stable TRPV3 expressing cells were selected in the G418-containing medium. For intracellular Ca^2+ measurements, cells were transfected with the desired DNA constructs in the wells of 96-well plates without pre-seeding using Lipofectamine 2000 (Invitrogen) as described.
(§2) Transfected HEK293 cells were reseeded on 12 mm round glass coverslips (Warner Instruments) one day after transfection. Whole-cell recordings were performed the following day. Recording pipettes were pulled from borosilicate glass capillaries (Sutter or World Precision Instruments) to 2–4 MΩ when filled with internal solution containing (in mM) 140 CsCl, 2.0 MgCl2, 5 EGTA, 10 HEPES, pH 7.4. Bathing solution contained (in mM) 140 NaCl, 5 KCl, 5 EGTA, 1 MgCl2, 10 glucose and 10 HEPES, pH 7.4. Isolated cells were voltage clamped in the whole-cell mode using an EPC10 amplifier (HEKA Instruments Inc). Voltage commands were made from the Patchmaster program, and the currents were recorded at 5 kHz. […] Whole-cell recordings were typically sampled at 5 kHz and filtered at 1 kHz. The compensation of pipette series resistance and capacitance were taken by using the built-in circuitry of the amplifier (>80%) to reduce voltage errors. Exchange of external solutions was performed using a gravity-driven local perfusion system (Automate Scientific). Channel activators were diluted into the recording solution at the desired final concentrations and applied to the cell through perfusion. As determined by the conductance tests, the solution around a patch under study was fully controlled by the application of a solution with a flow rate of 100 μl/min or greater. […] The acidic solutions contained (in mM): 140 NaCl, 5 KCl, 5 EGTA, 1 MgCl2, 10 glucose, and 10 MES, with pH adjusted to desired values by NaOH. For inside-out recordings, both the pipette solution and bath solution contained (in mM) 140 NaCl, 5 KCl, 5 EGTA, 1 MgCl2, 10 HEPES, pH 7.4. Excised patches were held constantly at desired potentials while compounds were repetitively applied and washed from the bath. For recordings from HEK293 cells under acidic pH conditions, the solution also contained 50 μM amiloride as an inhibitor of the native ASIC channels. Camphor was purchased from Acros (New Jersey, USA). Diphenyl borate (DPB) was synthesized by Beijing Realchem Technology Company (Beijing, China). Other chemicals were purchased from Sigma (Sigma, St. Louis, MO). Water-insoluble reagents were dissolved in either 100% ethanol or DMSO to make stock solutions and were diluted in the bathing solution at appropriate concentrations before experiments. […] All experiments except those for heat activation were performed at room temperature (22–24 °C).

[2] = biological target: TRPM8 (Rattus norvegicus, UniProt Q8R455); test: cell-based; settings: for IC50: IC50 for inhibition of menthol-evoked TRPM8 current, 100 μM menthol
TRPM8, sequence (Q8R455 whole entry): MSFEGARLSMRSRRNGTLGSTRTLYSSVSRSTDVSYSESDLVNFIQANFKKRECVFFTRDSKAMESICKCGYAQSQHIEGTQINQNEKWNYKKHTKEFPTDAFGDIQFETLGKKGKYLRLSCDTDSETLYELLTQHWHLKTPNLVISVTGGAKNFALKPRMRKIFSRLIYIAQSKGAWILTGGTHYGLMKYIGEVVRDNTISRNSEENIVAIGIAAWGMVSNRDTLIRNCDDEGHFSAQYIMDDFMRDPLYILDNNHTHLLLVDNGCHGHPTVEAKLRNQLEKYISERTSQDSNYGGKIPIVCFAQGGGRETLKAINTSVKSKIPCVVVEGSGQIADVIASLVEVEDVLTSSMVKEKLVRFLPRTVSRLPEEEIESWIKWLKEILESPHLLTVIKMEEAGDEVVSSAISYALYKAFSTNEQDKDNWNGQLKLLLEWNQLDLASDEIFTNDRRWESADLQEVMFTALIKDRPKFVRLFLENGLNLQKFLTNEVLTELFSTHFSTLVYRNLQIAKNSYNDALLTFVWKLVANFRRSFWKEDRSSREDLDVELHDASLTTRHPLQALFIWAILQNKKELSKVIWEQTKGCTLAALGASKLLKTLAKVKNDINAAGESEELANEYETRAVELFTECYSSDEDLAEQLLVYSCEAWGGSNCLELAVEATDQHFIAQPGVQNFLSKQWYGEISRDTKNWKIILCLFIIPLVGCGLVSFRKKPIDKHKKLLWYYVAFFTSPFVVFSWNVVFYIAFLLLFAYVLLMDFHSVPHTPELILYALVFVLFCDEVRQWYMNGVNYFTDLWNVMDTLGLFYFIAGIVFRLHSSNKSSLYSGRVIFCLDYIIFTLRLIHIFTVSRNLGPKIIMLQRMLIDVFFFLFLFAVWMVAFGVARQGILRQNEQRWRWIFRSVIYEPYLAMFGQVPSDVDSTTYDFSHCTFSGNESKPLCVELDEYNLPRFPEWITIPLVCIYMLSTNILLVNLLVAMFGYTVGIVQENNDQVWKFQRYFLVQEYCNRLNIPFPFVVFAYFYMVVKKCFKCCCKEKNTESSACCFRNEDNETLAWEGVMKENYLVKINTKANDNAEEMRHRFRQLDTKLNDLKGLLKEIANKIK
Description: as §1, §2

[3] = no reference given; cited from earlier work
[4] = 1H-NMR and mass spectrometry of compounds in solution; settings: 1H-NMR in PBS and mass spectrometry
Procedure: The solution NMR samples were prepared at the final concentration of 1 mM for the test compound in PBS at three different pH values (5.5, 7.4 and 8.5). […] One-dimensional (1D) ^1H NMR spectra were collected with 2-s delays using a standard Varian 1D watergate pulse sequence. Two-dimensional (2D) ^1H NMR TOCSY (mixing time 100 ms) and NOESY (mixing time 500 ms) spectra were collected using standard Varian TOCSY and NOESY pulse sequences. All spectra were processed using NMRPipe[45] with 1D ^1H spectra analyzed using ACD/NMR Processor (www.acdlabs.com) while 2D ^1H spectra analyzed using SPARKY[46]. In TOCSY, cross-peaks were potentially generated between all resonances within a spin system, while in NOESY, the integrated intensity of a given cross-peak was interpreted in terms of the distance between the two hydrogen atoms that gave rise to the peak.
The molecular mass was then measured by using positive and negative ion electrospray ionization mass spectrometry (ESI-MS, Thermo Fisher Scientific Inc., Waltham, MA).

[5] = biological target: T1, TRPV3 (Mus musculus, UniProt Q8K424); test: cell-based
Description: as §1

[6] = biological target: T2, TRPV1 (Rattus norvegicus, UniProt O35433); test: Inside-out patch recordings from TRPV1-expressing HEK293 cells; type: cell-based; settings: +60 mV
T2 construct: expressed in transfected cells; host or cells: HEK293
T2 sequence (O35433 whole entry): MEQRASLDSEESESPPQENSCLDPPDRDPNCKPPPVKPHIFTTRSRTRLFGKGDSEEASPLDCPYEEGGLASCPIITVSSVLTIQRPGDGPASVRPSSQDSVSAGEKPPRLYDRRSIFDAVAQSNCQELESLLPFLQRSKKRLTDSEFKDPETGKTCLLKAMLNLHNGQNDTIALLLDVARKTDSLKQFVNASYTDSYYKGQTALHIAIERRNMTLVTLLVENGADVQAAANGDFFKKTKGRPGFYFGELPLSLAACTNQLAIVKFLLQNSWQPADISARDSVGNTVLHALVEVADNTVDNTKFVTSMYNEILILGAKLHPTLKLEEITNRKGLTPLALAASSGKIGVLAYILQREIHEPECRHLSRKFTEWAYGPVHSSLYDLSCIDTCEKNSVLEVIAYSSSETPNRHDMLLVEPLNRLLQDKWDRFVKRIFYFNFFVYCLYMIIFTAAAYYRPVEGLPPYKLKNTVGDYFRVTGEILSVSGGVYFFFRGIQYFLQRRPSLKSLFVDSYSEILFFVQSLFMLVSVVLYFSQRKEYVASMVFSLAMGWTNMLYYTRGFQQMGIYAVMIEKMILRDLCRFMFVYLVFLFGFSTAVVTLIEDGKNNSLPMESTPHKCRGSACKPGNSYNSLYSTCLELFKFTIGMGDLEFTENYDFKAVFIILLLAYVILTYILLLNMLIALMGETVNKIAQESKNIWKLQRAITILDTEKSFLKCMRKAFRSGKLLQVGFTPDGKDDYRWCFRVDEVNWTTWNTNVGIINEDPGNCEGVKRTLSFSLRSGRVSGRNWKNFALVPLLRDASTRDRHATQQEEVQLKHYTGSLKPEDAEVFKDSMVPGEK
Description: as §1, with “For intracellular Ca^2+ measurements, cells were transfected with the desired DNA constructs in the wells of 96-well plates without pre-seeding using Lipofectamine 2000 (Invitrogen) as described.” left out
(§3) Transfected HEK293 cells were reseeded on 12 mm round glass coverslips (Warner Instruments) one day after transfection. […] Voltage commands were made from the Patchmaster program, and the currents were recorded at 5 kHz. […] As determined by the conductance tests, the solution around a patch under study was fully controlled by the application of a solution with a flow rate of 100 μl/min or greater. […]

[7] = biological target: T3, TRPV1(E600Q/T633A) (Rattus norvegicus, UniProt O35433, E600Q/T633A); test: Whole-cell recordings of TRPV1(E600Q/T633A) in HEK293 cells; type: cell-based; settings: −60 mV
T3 construct: expressed in transfected cells; host or cells: HEK293
T3 sequence (O35433 whole entry E600Q/T633A): as the sequence (O35433 whole entry) above, with E600Q, T633A counted along it
Description: as §1, with “For intracellular Ca^2+ measurements, cells were transfected with the desired DNA constructs in the wells of 96-well plates without pre-seeding using Lipofectamine 2000 (Invitrogen) as described.” left out
as §3

[8] = biological target: T4, mouse TRPV3 (Mus musculus, UniProt Q8K424); test: Whole-cell recordings of TRPV3 currents in HEK293 cells; type: cell-based; settings: for EC50: EC50 of 2-APB-evoked TRPV3 whole-cell current, Vh −60 mV; for EC50 / Hill coefficient nH of 2-APB concentration-response: after full sensitization
T4 construct: Full-length cDNA for murine TRPV3 was isolated and subcloned into pIRES2-EGFP; expressed in transfected cells; host or cells: HEK293 (transient)
T4 sequence (Q8K424 1-791): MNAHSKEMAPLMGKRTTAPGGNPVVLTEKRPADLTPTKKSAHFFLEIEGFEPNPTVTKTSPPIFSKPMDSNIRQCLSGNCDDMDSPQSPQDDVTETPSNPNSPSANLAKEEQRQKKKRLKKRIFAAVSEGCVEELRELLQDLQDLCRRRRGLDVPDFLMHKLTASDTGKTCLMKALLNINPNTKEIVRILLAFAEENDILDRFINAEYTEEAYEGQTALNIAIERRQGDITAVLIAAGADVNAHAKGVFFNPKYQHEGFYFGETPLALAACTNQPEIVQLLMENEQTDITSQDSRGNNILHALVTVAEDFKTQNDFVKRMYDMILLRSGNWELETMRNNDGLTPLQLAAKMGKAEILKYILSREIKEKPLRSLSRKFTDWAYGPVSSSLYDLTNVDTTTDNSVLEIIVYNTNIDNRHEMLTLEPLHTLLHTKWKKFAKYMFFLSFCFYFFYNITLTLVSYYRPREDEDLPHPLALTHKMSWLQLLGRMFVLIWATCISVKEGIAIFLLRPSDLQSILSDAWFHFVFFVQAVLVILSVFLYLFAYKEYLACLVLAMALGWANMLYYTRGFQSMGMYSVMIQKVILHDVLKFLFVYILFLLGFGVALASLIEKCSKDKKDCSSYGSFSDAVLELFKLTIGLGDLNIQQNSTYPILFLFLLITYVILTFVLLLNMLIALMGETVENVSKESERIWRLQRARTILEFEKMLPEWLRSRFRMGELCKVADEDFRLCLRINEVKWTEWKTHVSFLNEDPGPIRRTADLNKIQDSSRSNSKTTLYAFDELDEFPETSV
Procedure: The resulting mutations were verified by DNA sequencing.
Whole-cell recordings were performed the following day. […] Camphor was purchased from Acros (New Jersey, USA).

[9] = tested on: TRPV3 linker 2–3 mutants (L508R, D512N, S518V, A520S); settings: 100 μM 2-APB; whole-cell and inside-out; after sensitization with 500 μM 2-APB
Description: as §1, with “For intracellular Ca^2+ measurements, cells were transfected with the desired DNA constructs in the wells of 96-well plates without pre-seeding using Lipofectamine 2000 (Invitrogen) as described.” left out
as §3

[10] = biological target: T1, TRPV3; settings: 32 °C
Description: as §1

Compound: NCCOB(c1ccccc1)c1ccccc1 [2-APB, 2-aminoethoxydiphenyl borate]
- EC50 ([1]; pH 5.5): 112 ± 1.2 µM
- EC50 ([1]; pH 7.4): 522 ± 10.2 µM
- Hill coefficient nH of 2-APB concentration-response ([1]; pH 5.5): 5.2 ± 0.3 and 5.26 ± 0.35
- Hill coefficient nH of 2-APB concentration-response ([1]; pH 7.4): 4.3 ± 0.3 and 4.34 ± 0.35
- inhibition at 10 µM ([2]; HEK293, pH 5.5, read-out: Inhibition of menthol-evoked TRPM8 current): 84 ± 2%
- inhibition at 10 µM ([2]; HEK293, pH 6, read-out: Inhibition of menthol-evoked TRPM8 current): 69 ± 3%
- inhibition at 10 µM ([2]; HEK293, pH 7.4, read-out: Inhibition of menthol-evoked TRPM8 current): 24 ± 2%
- IC50 ([2]; pH 5.5): 3.1 µM and 3.07 µM
- IC50 ([2]; pH 7.4): 20.5 µM
- Hill coefficient nH of inhibition curve ([2]; pH 5.5): 1.5 ± 0.1 and 1.49 ± 0.08
- Hill coefficient nH of inhibition curve ([2]; pH 7.4): 1.4 ± 0.3 and 1.41 ± 0.28
- pKa of the amino group [3]: 9.6
- Stability in solution [4]: easily hydrolyzed to DPB
- EC50 [5]: 8.8 ± 1.5 µM
- Drop of cytosolic pH ([5]; 300 μM 2-APB): ~ 0.35 pH unit
- Increase of peak current at pH 5.5 over pH 7.4, cytoplasmic side ([6]; 100 μM 2-APB): more than 2 fold
- Effect of lowering extracellular pH to 5.5 on response ([7]; 10 μM 2-APB): strongly enhanced
- Half-maximal pH of 2-APB-activated TRPV3 currents ([8]; 10 μM 2-APB, pH 8.5 to 4.5, after sensitization with 100 μM 2-APB): 6.70 ± 0.02
- EC50 ([8]; pH 5.5): 3.3 µM and 3.34 µM
- EC50 ([8]; pH 7.4): 36.2 ± 2.1 µM
- Hill coefficient nH of 2-APB concentration-response ([8]; pH 5.5): 2.0 ± 0.3 and 1.98 ± 0.34
- Hill coefficient nH of 2-APB concentration-response ([8]; pH 7.4): 1.8 ± 0.2 and 1.76 ± 0.17
- Effect of low pH (5.5) on response to 2-APB in mutant channels [9]: greatly increased
- Effect of reducing extracellular pH to 5.5 on Ca2+ response ([10]; 166 μM 2-APB): not further increased
- Effect of reducing extracellular pH to 5.5 on Fluo-4 fluorescence intensity ([10]; low to moderate 2-APB concentrations (6–55 μM)): markedly enhanced

Compound: c1ccc(B(OB(c2ccccc2)c2ccccc2)c2ccccc2)cc1 [DPBA, diphenylboronic anhydride]
- Stability in solution [4]: easily hydrolyzed to DPB
- Increase of evoked current by acid (pH 5.5) ([8]; 5 μM DPBA, after sensitization with 30 μM DPBA): ~ 7 fold

Compound: OB(c1ccccc1)c1ccccc1 [DPB]
- Increase of evoked current by acidic pH (5.5 versus 7.4) ([8]; 10 μM DPB, after sensitization with 100 μM 2-APB): about 5 fold

Compound: OC(c1ccccc1)c1ccccc1 [DPM, diphenyl methanol]
- TRPV3 current elicited ([8]; pH 7.4 (30 or 500 μM) or pH 5.5 (30 μM only), after sensitization with 100 μM 2-APB): no detectable current

Compound: CC12CCC(CC1=O)C2(C)C (stereo not drawn) [camphor]
- Effect of acid (pH 5.5) on evoked TRPV3 current ([8]; 3 mM camphor, after sensitization with 100 μM 2-APB): slowed down the current development

Compound: COc1cc(CNC(=O)CCCC/C=C/C(C)C)ccc1O [capsaicin]
- Effect of intracellular acid (pH 5.5) on evoked current ([6]; 0.1 μM capsaicin): did not enhance
- Decrease of elicited current by lowering extracellular pH to 5.5 ([7]; 0.01 μM capsaicin): nearly one-half

Compound: CC1CCC(C(C)C)C(O)C1 (stereo not drawn) [menthol]
- inhibition at 1000 µM ([8]; HEK293, pH 5.5, read-out: Inhibition of evoked TRPV3 current by acid (pH 5.5)): ~48%
